From a melting point compilation (Tetko et al.; mined from patent text by program, amines drawn as free bases though some values may be those of a salt)

Row | melting point [°C] | SMILES
1 | 210 to 212 | CCCCCCc1ncc(/C=C(\Cc2cccs2)C(=O)O)n1Cc1ccc(C(=O)O)cc1
2 | 86 to 87 | Cc1cc(N)n(-c2ccc(Cl)cc2C)n1
3 | 152 to 154 | CCc1cc(C(=O)O)c(O)cc1C
4 | 157 to 159 | O=[N+]([O-])c1cn2c(n1)O[C@@H](COc1ccc3nc(N4CCN(Cc5ccc(OC(F)(F)F)cc5)CC4)sc3c1)CC2
5 | 77 to 78 | COc1ccc(OCCCBr)c(C2Sc3ccccc3N(C)C2=O)c1 (single isomer, unassigned; (-))
6 | 119 to 124 | CCCc1c(OCCCCCOc2ccc(OCCCC(=O)O)cc2CCC(=O)O)ccc2c1OCCC2=O
7 | 158 to 162 | CNC(=O)NCCn1c(-c2ccc(CN3CCOCC3)cc2OC)csc1=Nc1ccc(F)c(C)c1
8 | 112 to 113 | O=C(CBr)c1cc(OCc2ccccc2)c(OCc2ccccc2)c(OCc2ccccc2)c1
9 | 20 to 28 | C=CCOc1cc2c(cc1CC=C)CCC(=O)N2CC=C(C)C
10 | 154 to 156 | CCC1=C(c2ccccc2)C(c2ccccc2)=C(CC)C1=C(C#N)C#N
11 | 62 to 64 | CCOC(=O)CCC(=O)NCc1ccc(N)cc1
12 | 83 to 84 | COc1ccc(Br)c(COc2cccc3cc(OC)ccc23)c1
13 | 159 to 161 | O=S1(=O)NCN(C2CC2)c2ccc(Cl)cc21
14 | 260 to 265 | O=C(O)c1ccc(/C=C/C(=O)c2ccc(-c3cccs3)cc2)cc1
15 | 238 to 240 | Fc1cnc(Nc2nc3c(s2)CCN(CCCN2CCC(F)(F)CC2)c2n[nH]cc2-3)nc1
16 | 198 to 200 | COc1ncnc(OC)c1NC(=O)c1cccs1
17 | 159 to 160 | Cn1nc(-c2cc(C(=O)O)c(Cl)cc2Cl)c(Cl)c1OC(F)F
18 | 264 to 266 | CC(CCCn1c(C)nc2c(N)nc3ccccc3c21)=NO
19 | 49 to 51 | C#CC(C)OS(=O)(=O)c1ccc(C)cc1 (stereo unspecified)
20 | 97 to 99 | CCCCNC(=O)N(C)c1ncc(-c2ccncc2)cn1
21 | 107 to 109 | COc1ccc(-c2ccc(NC(=O)OC(C)(C)C)c([N+](=O)[O-])c2)cc1
22 | 150 to 152 | CCC(C)(C)c1ccc(OCC(=O)Nc2ccc(Nc3cccc(O)c3)cc2)c(C(C)(C)CC)c1
23 | 170 to 174 | COc1ccc(-c2cncc3cccc([N+](=O)[O-])c23)c(O)c1OC
24 | 94 to 96 | N#Cc1cccc(CN2C(=O)C3(COc4cc5c(cc43)OCCO5)c3ccccc32)c1 (stereo unspecified)

Row | melting point [°C] | SMILES
25 | 195 to 196 | CCC(=O)N1CCC(NC(=O)Nc2ccc(OC(F)(F)F)cc2)CC1
26 | 185 to 186 | Cc1cc(C(F)(F)F)nn1CC(=O)N1CCC(C(N)=S)CC1
27 | 82 to 83 | CN1C(=O)C(c2ccc[nH]2)=C(c2cn(C(=O)OC(C)(C)C)c3ccccc23)C1=O
28 | 173 to 175 | COc1nc(N)nc2oc(C)cc12
29 | 220 to 223 | O=C1Cc2cc(O)cc(O)c2C2CCCCC12 (stereo unspecified)
30 | 330 to 331 | CCOc1ccc2nc3[nH]cnc(=O)c3cc2c1OC
31 | 71 to 72 | CCC(=O)OC(C)c1ccc(O)cc1 (single isomer, unassigned; (+))
32 | 111 to 112 | CCC(=O)c1cc(-c2ccccc2)no1
33 | 226 to 227 | O=C(O)COc1ccc2c(-c3ccc(Cl)cc3F)noc2c1Cl
34 | 167 to 168 | CCCCc1cc(C#N)sc1-c1ccc2c(c1)C(C)(C)OC(=O)N2
35 | 89 to 91 | O=c1oc(-c2ccc(NS(=O)(=O)c3ccccc3)cc2)cc(O)c1SCCc1ccccc1
36 | 226 to 230 | Cc1ccccc1Cc1nc2cc(Cl)c(S(N)(=O)=O)cc2[nH]1
37 | 112 to 114 | COc1ccc2c(c1)CCN(C(=O)Cc1ccc([N+](=O)[O-])cc1)C2C (stereo unspecified)
38 | 192 | O=c1c2cncc3cccc(c32)n2c([N+](=O)[O-])ccc12
39 | 168 to 170 | CC(C)(C)n1nnc(-c2ccc(CNc3n[nH]c4ncnc(Nc5cccc(Cl)c5)c34)cc2)n1
40 | 129 to 130 | CCC(O)(c1ccc(OCCCN2CCN(C)CC2)cc1)c1cccc(C(F)(F)F)c1 (stereo unspecified)
41 | 80.5 to 82.4 | CC(=O)c1cc(S(=O)(=O)c2ccccc2)ccc1OCc1ccccc1
42 | 174 to 175 | CSC1NC(=O)N(C)C(=O)N1N (stereo unspecified)
43 | 115 to 116 | Fc1ccccc1-c1nc2c(s1)NCCCC2
44 | 117 to 118 | CS(=O)c1cccc(-c2ncn(CCCN3CCOCC3)c2-c2ccncc2)c1 (stereo unspecified)
45 | 111 to 113 | CC(C)(C)OC(=O)NCC12CN(c3c(F)cc4c(=O)c(C(=O)O)cn(C5CC5)c4c3Cl)CC1CCO2 (stereo unspecified)
46 | 125 to 127 | O=S1(=O)NN=Cc2ccsc21
47 | 107 | COP(=O)(Cc1cc(Cl)c(O)c(C(C)(C)C)c1)OC
48 | 103 to 104 | Cc1ccc(CSc2nc3cscc3n2C(=O)OCc2ccccc2)nc1

Row | melting point [°C] | SMILES
49 | 195 to 196 | CN(c1cc(OCCCS(C)(=O)=O)cc2cc(C(=O)NCC(CN3CCN(S(C)(=O)=O)CC3)SCc3ccccc3)[nH]c12)S(=O)(=O)c1ccccn1 (stereo unspecified)
50 | 156 to 158 | CC(C)(C)CNc1nc(C#N)nc2ccc(OCc3cccnc3)cc12
51 | 219 to 221 | O=C(O)CNc1ccc2ccccc2c1
52 | 188 to 189 | Cc1cc(S(=O)(=O)N2CCCCC2)c(O)c2c1CCC2=O
53 | 138 | CCN1CCNS(=O)(=O)c2cc(Oc3ccccc3)ccc21
54 | 97 to 98 | CCCCCCCCCCCC(CC(O)C(C(=O)OC(C)(C)C)S(=O)c1ccc(C)cc1)OC1CCCCO1 (stereo unspecified)
55 | 52 | Cc1c(F)c(F)c(CNc2ccc(Cl)c(O)c2)c(F)c1F
56 | 90 to 92 | Cc1c(C#N)c(C(F)(F)F)nn1-c1c(Cl)cc(C(F)(F)F)cc1Cl
57 | 162 to 164 | Nc1ccc(S(=O)(=O)n2cc(CC3CCNCC3)c3cc(F)ccc32)cc1
58 | 205 to 207 | CCC(C)(C)NC(Nc1cc(C(F)(F)F)cc(C(F)(F)F)c1)=C(C#N)S(=O)(=O)c1ccc(Cl)cc1
59 | 200 to 202 | O=C(Nc1ccc(C(F)(F)F)cc1)C1=NN(c2ccc(Cl)nn2)C(c2ccc(F)cc2)C1 (stereo unspecified)
60 | 149 | Cc1cnc2c(c1)CCCC2C(N)=S (stereo unspecified)
61 | 85 to 105 | COc1cc(OC)c(-c2cc3ccccc3s2)cc1C=CC(=O)c1cc(OC)c(O)c(OC)c1
62 | 118 to 126 | COc1ccc(-c2nc3ccc(-n4cncn4)cc3[nH]2)cc1OC(C)C
63 | 168 to 169 | O=C1c2ccccc2C(=O)C1c1ccncn1
64 | 136 to 138 | CS(=O)CCNC(=O)c1cccc(-c2ccc3c(c2)C(c2cc(Cl)ccc2Cl)CC3)c1 (stereo unspecified)
65 | 148 to 149 | CC(=O)Nc1scc(C)c1C(=O)c1ccccc1Cl
66 | 175 to 178 | NC(=O)c1cncnc1
67 | 96 to 97 | O=C1N[C@H](CO)C[C@H]1C1CCCCC1
68 | 176 to 178 | O=S(=O)(c1ccccc1)n1c2cc(O)c(O)cc2c2ccc(O)c(O)c21
69 | 92 to 100 | CCc1oc2ccccc2c1C(=O)N(Cc1ccccc1)Cc1ccc2c(Br)c(OCC#N)ccc2c1
70 | 56 to 61 | CC(C)C[C@H](NCc1ccc(OC(C)(C)C)cc1)C(=O)N1CCN(C(c2ccc(F)cc2)c2ccc(F)cc2)CC1
71 | 179 to 183 | COc1ccccc1[C@@H]1O[C@@H](CC(=O)O)C(=O)N(CC(C)(C)C)c2ccc(Cl)cc21
72 | 86 to 88 | CCCCCS(=O)(=O)NC(=O)/C=C/c1ccc(OCC(O)COC(C)C)cc1Oc1ncc(C(F)(F)F)cc1Cl (stereo unspecified)

Row | melting point [°C] | SMILES
73 | 177 | CC(=O)NS(=O)(=O)c1cc(C(=O)CCl)ccc1Cl
74 | 71 to 74 | O=C(Oc1ccc(Oc2ccccc2)cc1)N1CCC(CO)CC1
75 | 160 to 162 | Cc1ccc2ccc(C(=O)O)nc2c1
76 | 221 to 223 | CC(C)n1c(=O)c2c(-c3nc(C4CC4)no3)ncn2c2cccnc21
77 | 61 to 63 | COc1cccc(C(CC(=O)O)SC)c1 (stereo unspecified)
78 | 108 to 112 | CCCCCCC(C(=O)O)n1cc(Cc2ccccc2)c2cc(-c3ccccc3-c3nn[nH]n3)ccc21 (stereo unspecified)
79 | 102 to 103 | CS(=O)c1nc(-c2ccccc2)c(-c2ccccc2)s1 (stereo unspecified)
80 | 105 to 106 | CC(C)NC(=O)n1nc(Oc2c(Cl)cc(C(F)(F)F)cc2Cl)cc1C(Cl)(Cl)Cl
81 | 143 to 144 | CN(O)C(=O)N1CCC(C(c2ccccc2)c2ccccc2)CC1
82 | 156 to 159 | ClCC=C(c1ccc(Br)cc1)c1cccnc1
83 | 113 | CNC(=S)NC1CCCc2cc(C)cnc21 (stereo unspecified)
84 | 47 to 49 | CCOC(=O)Cc1sc(Sc2ccc(OC)nn2)nc1C
85 | 105 to 107 | COC(=O)c1cccc(OCCN2CCN(c3cc(Cl)nnc3Cl)CC2)c1
86 | 93 to 94 | COC(=O)c1ccc(CNS(C)(=O)=O)cc1S(=O)(=O)Cl
87 | 212 to 214 | CC1CCc2c(F)c(F)cc3c(=O)[nH]c(=O)n1c23 (stereo unspecified)
88 | 198 to 200 | O=C1CCC(Nc2ncnc3c2ncn3C2OC(CO)C(O)C2O)N1 (stereo unspecified)
89 | 76 to 78 | CCN(C1CC(C)(C)Oc2ccc(OCCO)cc21)S(C)(=O)=O (stereo unspecified)
90 | 105 to 107 | N#CCOc1cc2ccccc2cc1I
91 | 142 to 143 | CCc1cc2c(Cl)cc(F)c(-n3c(=O)cc(C(F)(F)F)n(C)c3=O)c2o1
92 | 166 to 169 | CN1CCN(CCCN2c3ccc(F)cc3Sc3ccc(S(=O)(=O)N(C)C)cc32)CC1
93 | 91 | CN1C(O)=C(c2ccccc2)N=NC1(C)N (stereo unspecified)
94 | 121 to 123 | COc1ccc(C2=NN(C3CCN(C(=O)CN4CCN(C)CC4)CC3)C(=O)C(C)(C)C2)c2c1OC(C)(C)C2
95 | 186 to 192 | Clc1nc(-c2ccc3c(c2)CCO3)nc2ccccc12
96 | 82 to 85 | O=CC(=Cc1ccc(Cl)cc1Cl)C1CCOCC1

Row | SMILES | melting point [°C]
97 | Cc1ccc2c(C(=O)C3CSC(c4cccnc4)N3)c[nH]c2c1 (stereo unspecified) | 132 to 138
98 | Nc1c([N+](=O)[O-])cc(C(F)(F)F)cc1[N+](=O)[O-] | 142 to 144
99 | OC(c1ccccc1)(c1ccncc1)c1ccc(F)cc1 (stereo unspecified) | 189 to 192
100 | N=C(NCc1cccc(F)c1)N[N+](=O)[O-] | 177 to 179
101 | CCCCCOc1ccc(C(=O)c2cccc3ccccc23)c2ccccc12 | 72 to 75
